Source: US20060014206A1, “Assay methods for state-dependent calcium channel agonists/antagonists” (priority 2002, published 2006)

Molecular target: T1, L-type calcium channel, the α1C subunit (Homo sapiens, UniProt Q13936)
T1 construct: expressed in transfected cells
Assay: FLIPR assay of K+-stimulated calcium influx in C1-6-37-3 cells (HEK 293 stably transfected with L-type α1C channel and Kir 2.3)
Assay type: cell-based
Conditions: fluo-3 loaded cells, increasing potassium concentration (FIG. 4)
Procedure: The cell line used in this embodiment has a stably transfected L-type calcium channel, the α1C subunit. It also was transfected with the Kir 2.3 inward rectifier K channel, which allows for control of cell membrane potential through alteration of extracellular [K^+]o. Preincubation of the cells for 10 min in 30 mM [K^+]o partially depolarizes the cells.
Specifically exemplified herein is an assay to determine state-dependent drug-calcium channel interactions using a cell line that co-expresses a potassium channel (Kir2.3) that determines the resting membrane potential of the cells as a function of the external potassium ion concentration ([K]o) and a voltage gated calcium channel. Co-expressed in these cells is the L-type voltage gated calcium channel complex (alpha1C, alpha2-delta, beta2a). Potassium is used in a two step manner in this assay. First it is used to set the resting membrane potential (Vm) during antagonist incubation. […] This calcium influx is detected using a calcium sensitive dye (eg Fluo-3, Fluo4, Fura2, etc.). If the calcium influx is diminished by exposure to antagonists, this will be detected when compared to the control condition.
Hek 293 cells were stably transfected with the alpha 1C subunit of the L-type Calcium ion channel and Kir 2.3 inward K^+ rectifying channel (C1-6-37-3 cells). Calcium influx into the cells was measured in a FLIPR™ (Molecular Devices, CA). […]

T1 sequence (Q13936 whole entry): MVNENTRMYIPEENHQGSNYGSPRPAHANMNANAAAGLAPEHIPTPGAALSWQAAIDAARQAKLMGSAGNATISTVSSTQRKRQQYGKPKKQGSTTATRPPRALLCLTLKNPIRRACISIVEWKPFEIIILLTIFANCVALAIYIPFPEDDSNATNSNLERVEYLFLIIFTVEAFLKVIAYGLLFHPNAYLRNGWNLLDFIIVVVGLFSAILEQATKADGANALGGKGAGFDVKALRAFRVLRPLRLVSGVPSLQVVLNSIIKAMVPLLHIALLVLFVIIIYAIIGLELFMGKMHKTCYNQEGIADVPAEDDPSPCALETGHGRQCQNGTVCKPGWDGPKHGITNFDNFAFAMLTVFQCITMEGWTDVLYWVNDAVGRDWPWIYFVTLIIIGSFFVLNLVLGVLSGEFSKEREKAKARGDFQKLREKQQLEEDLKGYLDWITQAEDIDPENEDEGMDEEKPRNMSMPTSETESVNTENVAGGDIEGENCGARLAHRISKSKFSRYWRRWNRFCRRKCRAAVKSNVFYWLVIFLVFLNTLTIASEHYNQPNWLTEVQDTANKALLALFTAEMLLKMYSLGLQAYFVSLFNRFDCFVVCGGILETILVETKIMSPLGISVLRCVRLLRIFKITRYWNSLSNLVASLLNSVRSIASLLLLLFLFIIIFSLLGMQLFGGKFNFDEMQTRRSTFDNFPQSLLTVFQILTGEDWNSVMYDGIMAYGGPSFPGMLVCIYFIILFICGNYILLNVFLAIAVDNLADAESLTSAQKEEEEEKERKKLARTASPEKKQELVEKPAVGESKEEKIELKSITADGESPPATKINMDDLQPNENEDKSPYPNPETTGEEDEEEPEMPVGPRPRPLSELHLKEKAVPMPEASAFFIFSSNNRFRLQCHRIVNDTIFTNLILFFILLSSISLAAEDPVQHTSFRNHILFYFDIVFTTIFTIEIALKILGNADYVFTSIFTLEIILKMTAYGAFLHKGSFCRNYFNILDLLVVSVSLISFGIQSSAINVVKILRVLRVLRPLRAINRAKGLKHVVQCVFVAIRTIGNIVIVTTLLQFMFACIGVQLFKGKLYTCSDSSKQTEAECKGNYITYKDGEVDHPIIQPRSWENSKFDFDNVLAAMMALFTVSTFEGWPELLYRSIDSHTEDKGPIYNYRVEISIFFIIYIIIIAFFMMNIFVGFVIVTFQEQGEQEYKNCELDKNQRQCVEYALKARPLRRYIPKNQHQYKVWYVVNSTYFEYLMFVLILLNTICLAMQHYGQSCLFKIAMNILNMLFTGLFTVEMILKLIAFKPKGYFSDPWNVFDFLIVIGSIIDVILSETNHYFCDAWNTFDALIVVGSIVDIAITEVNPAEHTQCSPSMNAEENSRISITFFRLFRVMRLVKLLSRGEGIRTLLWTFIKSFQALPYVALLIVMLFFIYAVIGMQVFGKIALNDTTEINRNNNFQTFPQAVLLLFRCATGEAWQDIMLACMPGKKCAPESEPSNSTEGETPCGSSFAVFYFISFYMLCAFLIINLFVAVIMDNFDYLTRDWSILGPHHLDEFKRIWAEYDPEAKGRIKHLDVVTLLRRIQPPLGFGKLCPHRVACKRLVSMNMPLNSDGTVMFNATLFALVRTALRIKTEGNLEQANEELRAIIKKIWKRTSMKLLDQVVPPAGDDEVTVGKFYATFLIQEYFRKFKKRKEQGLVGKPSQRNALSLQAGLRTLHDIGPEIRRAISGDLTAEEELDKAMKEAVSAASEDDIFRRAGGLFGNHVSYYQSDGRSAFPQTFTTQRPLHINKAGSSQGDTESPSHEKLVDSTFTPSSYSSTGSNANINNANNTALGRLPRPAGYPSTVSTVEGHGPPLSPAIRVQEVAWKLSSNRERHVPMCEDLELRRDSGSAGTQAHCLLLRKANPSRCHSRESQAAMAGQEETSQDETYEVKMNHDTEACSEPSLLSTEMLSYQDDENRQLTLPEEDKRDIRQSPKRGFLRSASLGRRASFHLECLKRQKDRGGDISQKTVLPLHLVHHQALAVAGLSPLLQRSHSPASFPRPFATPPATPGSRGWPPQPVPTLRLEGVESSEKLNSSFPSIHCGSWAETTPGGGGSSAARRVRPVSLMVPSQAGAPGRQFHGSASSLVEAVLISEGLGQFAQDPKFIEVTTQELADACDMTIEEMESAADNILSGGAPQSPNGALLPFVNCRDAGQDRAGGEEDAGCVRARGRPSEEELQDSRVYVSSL
T1 sequence (P54289 25-946 partner limits assumed): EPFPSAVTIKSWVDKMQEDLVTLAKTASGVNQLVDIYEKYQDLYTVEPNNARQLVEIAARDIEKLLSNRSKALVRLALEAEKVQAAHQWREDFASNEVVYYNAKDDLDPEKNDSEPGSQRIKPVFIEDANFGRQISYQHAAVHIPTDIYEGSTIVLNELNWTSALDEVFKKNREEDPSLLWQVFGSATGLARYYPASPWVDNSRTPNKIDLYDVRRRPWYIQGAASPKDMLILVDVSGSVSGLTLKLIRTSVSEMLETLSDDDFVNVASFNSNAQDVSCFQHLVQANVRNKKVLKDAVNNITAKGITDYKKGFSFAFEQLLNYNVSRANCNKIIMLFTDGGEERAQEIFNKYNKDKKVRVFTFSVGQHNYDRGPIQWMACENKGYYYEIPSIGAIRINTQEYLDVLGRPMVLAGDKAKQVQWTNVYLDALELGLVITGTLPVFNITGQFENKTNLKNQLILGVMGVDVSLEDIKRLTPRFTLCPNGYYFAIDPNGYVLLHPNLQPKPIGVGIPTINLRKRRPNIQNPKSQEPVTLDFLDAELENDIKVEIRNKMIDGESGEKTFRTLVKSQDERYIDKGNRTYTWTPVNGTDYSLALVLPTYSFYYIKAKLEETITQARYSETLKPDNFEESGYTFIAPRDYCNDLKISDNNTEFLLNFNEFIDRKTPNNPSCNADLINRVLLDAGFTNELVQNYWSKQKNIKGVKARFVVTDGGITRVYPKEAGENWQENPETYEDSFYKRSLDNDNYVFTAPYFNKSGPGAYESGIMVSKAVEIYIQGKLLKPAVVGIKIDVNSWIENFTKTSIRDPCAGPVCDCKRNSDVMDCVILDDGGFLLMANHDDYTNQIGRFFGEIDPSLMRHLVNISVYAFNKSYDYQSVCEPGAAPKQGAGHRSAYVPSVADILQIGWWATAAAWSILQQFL
T1 sequence (P54289 947-1103 partner limits assumed): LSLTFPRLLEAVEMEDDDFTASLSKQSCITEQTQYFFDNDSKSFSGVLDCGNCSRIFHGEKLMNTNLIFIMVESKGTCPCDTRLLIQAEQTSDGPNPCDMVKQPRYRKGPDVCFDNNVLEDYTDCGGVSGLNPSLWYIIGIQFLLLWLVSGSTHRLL
T1 sequence (Q08289 whole entry partner): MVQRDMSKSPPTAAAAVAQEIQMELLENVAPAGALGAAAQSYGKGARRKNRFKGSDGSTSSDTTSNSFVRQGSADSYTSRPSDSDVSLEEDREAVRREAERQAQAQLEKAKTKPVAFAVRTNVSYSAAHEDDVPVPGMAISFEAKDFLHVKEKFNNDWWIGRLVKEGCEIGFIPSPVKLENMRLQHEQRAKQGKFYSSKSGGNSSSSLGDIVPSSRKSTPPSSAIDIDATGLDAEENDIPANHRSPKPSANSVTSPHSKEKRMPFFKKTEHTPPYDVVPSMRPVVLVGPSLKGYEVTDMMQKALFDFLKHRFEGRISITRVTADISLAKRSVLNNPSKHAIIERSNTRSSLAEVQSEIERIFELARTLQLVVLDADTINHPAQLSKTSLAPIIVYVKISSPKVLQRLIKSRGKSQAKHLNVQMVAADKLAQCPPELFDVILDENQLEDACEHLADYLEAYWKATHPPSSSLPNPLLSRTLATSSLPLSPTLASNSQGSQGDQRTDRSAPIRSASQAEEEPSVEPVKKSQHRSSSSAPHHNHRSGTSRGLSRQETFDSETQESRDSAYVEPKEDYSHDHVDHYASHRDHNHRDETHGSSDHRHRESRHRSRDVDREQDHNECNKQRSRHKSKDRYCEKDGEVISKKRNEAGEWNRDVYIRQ

SMILES: [K+] [K^+]
- EC50: 11 mM
